Molecules are shown by their SMILES.

In the first test the test system is LNCaP cells. Briefly: LNCaP cell viability assay (MTS). The test is classed as cell-based. The following applies: Homo sapiens, LNCaP, 48 h, LNCaP cell line. The procedure, abridged: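 GI50 derived by nonlinear four-parameter curve fitting (bottom fixed at zero) of MTS viability data. Prostate LNCaP cells seeded at 5000/well were given compound doses from 1 to 80 µM one day after plating and assayed after 48 h of exposure.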
The term GI50 denotes the concentration giving 50% growth inhibition. The low end stands for greater sensitivity of the cells, the high end for lower sensitivity of the cells. Take `O=S(=O)(NCC1(c2ccc(Cl)c(Cl)c2)CCNC1)c1ccc(OC(F)(F)F)cc1` (stereo not shown) [Compound 253, N-((3-(3,4-dichlorophenyl)pyrrolidin-3-yl)methyl)-4-(trifluoromethoxy)benzenesulfonamide]: halving of growth (GI50) required 10.7 µM.

As for `CC(CN(C)C)NS(=O)(=O)c1ccc(OC(F)(F)F)c([N+](=O)[O-])c1` (stereo not shown) [Compound 254, N-(1-(dimethylamino)propan-2-yl)-3-nitro-4-(trifluoromethoxy)benzenesulfonamide], growth was halved (GI50) at 1.92 µM.

The compound `CN(C)C(=O)C(NS(=O)(=O)c1ccc(OC(F)(F)F)cc1)c1ccc(Cl)c(Cl)c1` (stereo not shown) [Compound 255, 2-(3,4-dichlorophenyl)-N,N-dimethyl-2-((4-(trifluoromethoxy)phenyl)sulfonamido)acetamide] had a concentration for 50% growth inhibition (GI50) of 38.5 µM. This GI50 is about 20-fold higher than that of the compound before.

Regarding `COc1ccc(CNCC(NS(=O)(=O)c2ccc(OC(F)(F)F)cc2)c2ccc(Cl)c(Cl)c2)cc1` (stereo not shown) [Compound 256, N-(1-(3,4-dichlorophenyl)-2-((4-methoxybenzyl)amino)ethyl)-4-(trifluoromethoxy)benzenesulfonamide], the GI50 is 34 µM.

Take `O=S(=O)(NC(CN1CCNCC1)c1ccc(Cl)cc1)c1ccc(OC(F)(F)F)cc1` (stereo not shown) [Compound 257, N-(1-(4-chlorophenyl)-2-(piperazin-1-yl)ethyl)-4-(trifluoromethoxy)benzenesulfonamide]: it took 11.6 µM to inhibit growth by half (GI50).

On to `O=S(=O)(NC(CN1CCNCC1)c1ccc(Cl)c(F)c1)c1ccc(OC(F)(F)F)cc1` (stereo not shown) [Compound 258, N-(1-(4-chloro-3-fluorophenyl)-2-(piperazin-1-yl)ethyl)-4-(trifluoromethoxy)benzenesulfonamide], for which growth was halved (GI50) at 11.3 µM.

Consider `O=S(=O)(NC(CN1CCNCC1)c1ccc(Cl)cc1)c1ccc(OC(F)(F)F)nc1` (stereo not shown) [Compound 259, N-(1-(4-chlorophenyl)-2-(piperazin-1-yl)ethyl)-6-(trifluoromethoxy)pyridine-3-sulfonamide], for which growth was halved (GI50) at 48.8 µM.

As for `O=S(=O)(NCC1(c2ccccc2)CCNCC1)c1ccc(OC(F)(F)F)cc1` [Compound 260, N-((4-phenylpiperidin-4-yl)methyl)-4-(trifluoromethoxy)benzenesulfonamide], growth was halved (GI50) at 33.6 µM. The GI50 values of the last two compounds are within 1.5-fold of each other.

`O=S(=O)(NCC1(c2cccc(C(F)(F)F)c2)CCCC1)c1ccc(OC(F)(F)F)cc1` [Compound 262, 4-(trifluoromethoxy)-N-((1-(3-(trifluoromethyl)phenyl)cyclopentyl)methyl)benzenesulfonamide] returned a GI50 of 63.1 µM.

The compound `O=S(=O)(NC(CN1CCNCC1)c1ccc(F)cc1)c1ccc(OC(F)(F)F)cc1` (stereo not shown) [Compound 264, N-(1-(4-fluorophenyl)-2-(piperazin-1-yl)ethyl)-4-(trifluoromethoxy)benzenesulfonamide] yielded a 50% growth inhibitory concentration (GI50) of 43.1 µM.

Compound `O=S(=O)(NC[C@H](c1ccc(F)cc1)N1CCNCC1)c1ccc(OC(F)(F)F)cc1` [Compound 265, (S)—N-(2-(4-fluorophenyl)-2-(piperazin-1-yl)ethyl)-4-(trifluoromethoxy)benzenesulfonamide] yielded a 50% growth inhibitory concentration (GI50) of 40.3 µM.

On to `CN(C)CC(NS(=O)(=O)c1ccc(C(F)(F)F)c([N+](=O)[O-])c1)c1ccc(Cl)c(Cl)c1` (stereo not shown) [Compound 266, N-(1-(3,4-dichlorophenyl)-2-(dimethylamino)ethyl)-3-nitro-4-(trifluoromethyl)benzenesulfonamide], for which the 50% growth inhibitory concentration (GI50) was 41.9 µM.

Compound `CCCOc1ccc(S(=O)(=O)NC(CN(C)C)c2ccc(Cl)c(Cl)c2)cc1` (stereo not shown) [Compound 267, N-(1-(3,4-dichlorophenyl)-2-(dimethylamino)ethyl)-4-propoxybenzenesulfonamide] had a GI50 of 23.8 µM. Compared with the last compound, the GI50 is about 1.8-fold lower.

For `CN(C)CC(NS(=O)(=O)c1ccc(NC2CCCCC2)cc1)c1ccc(Cl)c(Cl)c1` (stereo not shown) [Compound 268, 4-(cyclohexylamino)-N-(1-(3,4-dichlorophenyl)-2-(dimethylamino)ethyl)benzenesulfonamide], the GI50 was 15.5 µM.

`CN1CCN(CC(NS(=O)(=O)c2ccc(Oc3ccc(F)cc3)cc2)c2ccc(Cl)c(Cl)c2)CC1` (stereo not shown) [Compound 269, N-(1-(3,4-dichlorophenyl)-2-(4-methylpiperazin-1-yl)ethyl)-4-(4-fluorophenoxy)benzenesulfonamide]: the GI50 came out at 15 µM. This GI50 and that of the compound before are within 1.5-fold of each other.

In another test the test system is HCC1937 cells. Briefly: HCC1937 cell viability assay (MTS). The test is classed as cell-based. The following applies: Homo sapiens; HCC1937 cell line, 48 hours, MTS assay (footnote a). On the procedure:
HCC1937 cells are plated in a 96 well plate format at a density of 10,000 cells per well. After incubation overnight, cells are treated with a compound (e.g., compound 263) at following concentrations: 80, 40, 20, 10, 5, 2.5, 1.25 μM. Compound concentrations are prepared in RPMI via serial dilutions from a starting stock of 80 mM. 48 hours after compound treatment, cell viability is assessed using the Promega CellTiter 96 aqueous one proliferation assay (Promega G3582, MTS assay) according to manufacturer's protocol.
The cell viability data was analyzed with GraphPad Prism software. The values were log transformed and analyzed with non-linear regression (curve-fit) using log(inhibitor) vs. response-variable slope (four parameters) and constraining the bottom to equal zero. Unless otherwise indicated, the GI50 values provided in Table 113 correspond to the LNCaP cell viability assays.
For orientation: Tetrazolium assays rely on reduction of a dye to a coloured formazan, in cell work by metabolically active cells.
On to `O=S(=O)(NCC1(c2ccccc2)CCCN1)c1ccc(OC(F)(F)F)cc1` (stereo not shown) [Compound 263, N-((2-phenylpyrrolidin-2-yl)methyl)-4-(trifluoromethoxy)benzenesulfonamide], for which the GI50 was found to be 75.7 µM.

The values are drawn from patent publication US20240174603A1 (Rappta Therapeutics Oy, priority 2021, published 2024).
